# Source: ChEMBL document CHEMBL1201862, “PubChem BioAssay data set” (2004)
# Active and inactive are the calls of the source.
# Legend:
# [1] = molecular target: G-protein coupled receptor 55 (Homo sapiens, UniProt Q9Y2T6); assay: GPR55 agonists via beta-arrestin recruitment, primary screen, imaging, U2OS cells, beta-arrestin-GFP redistribution (AID 1961); assay type: functional
# [2] = molecular target: T1, Alkaline phosphatase, tissue-nonspecific isozyme (Homo sapiens, UniProt P05186); assay: TNAP enzyme activators, dose response, selectivity assay for human IAP activator project, biochemical, TNAP isozyme, human IAP uHTS hits (AID 488886); assay type: functional;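 further: potency of compounds raising TNAP activity as a selectivity check on IAP activators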
# T1 sequence (P05186 whole entry): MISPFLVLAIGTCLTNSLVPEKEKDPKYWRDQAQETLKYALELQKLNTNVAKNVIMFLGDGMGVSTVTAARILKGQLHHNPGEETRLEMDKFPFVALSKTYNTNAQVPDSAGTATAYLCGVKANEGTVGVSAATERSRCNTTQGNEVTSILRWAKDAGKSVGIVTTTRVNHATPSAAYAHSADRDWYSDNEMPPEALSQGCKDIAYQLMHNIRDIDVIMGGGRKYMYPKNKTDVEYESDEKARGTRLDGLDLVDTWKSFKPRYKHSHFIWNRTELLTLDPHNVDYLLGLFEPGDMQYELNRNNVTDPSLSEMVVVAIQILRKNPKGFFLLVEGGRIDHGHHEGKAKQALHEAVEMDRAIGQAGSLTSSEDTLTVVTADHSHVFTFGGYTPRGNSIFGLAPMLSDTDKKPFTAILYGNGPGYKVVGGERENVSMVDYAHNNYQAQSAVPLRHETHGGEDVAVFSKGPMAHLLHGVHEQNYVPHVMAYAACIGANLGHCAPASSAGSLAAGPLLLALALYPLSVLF
# [3] = molecular target: T2, Intestinal-type alkaline phosphatase (Mus musculus, UniProt P24822); assay: PubChem AID 488875; assay type: functional
# T2 sequence (P24822 whole entry): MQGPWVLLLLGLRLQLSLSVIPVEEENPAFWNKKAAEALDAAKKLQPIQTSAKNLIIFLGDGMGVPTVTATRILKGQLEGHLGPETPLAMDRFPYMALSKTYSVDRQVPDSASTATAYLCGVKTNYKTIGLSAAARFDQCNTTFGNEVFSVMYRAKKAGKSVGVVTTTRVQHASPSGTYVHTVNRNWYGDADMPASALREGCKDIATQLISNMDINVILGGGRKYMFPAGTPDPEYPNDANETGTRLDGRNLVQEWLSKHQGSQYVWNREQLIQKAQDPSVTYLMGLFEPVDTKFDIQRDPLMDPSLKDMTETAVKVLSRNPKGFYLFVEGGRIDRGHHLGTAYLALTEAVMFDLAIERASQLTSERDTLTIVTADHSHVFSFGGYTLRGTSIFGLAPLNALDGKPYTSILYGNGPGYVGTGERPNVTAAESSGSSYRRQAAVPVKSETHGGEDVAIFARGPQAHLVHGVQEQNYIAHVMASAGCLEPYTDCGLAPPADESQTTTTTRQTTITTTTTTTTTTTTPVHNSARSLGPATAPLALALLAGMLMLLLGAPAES
# [4] = molecular target: T3, Intestinal-type alkaline phosphatase (Homo sapiens, UniProt P09923); assay: human intestinal alkaline phosphatase activators, dose response, biochemical, luminescence, uHTS hits (AID 463120); assay type: functional
# T3 sequence (P09923 whole entry): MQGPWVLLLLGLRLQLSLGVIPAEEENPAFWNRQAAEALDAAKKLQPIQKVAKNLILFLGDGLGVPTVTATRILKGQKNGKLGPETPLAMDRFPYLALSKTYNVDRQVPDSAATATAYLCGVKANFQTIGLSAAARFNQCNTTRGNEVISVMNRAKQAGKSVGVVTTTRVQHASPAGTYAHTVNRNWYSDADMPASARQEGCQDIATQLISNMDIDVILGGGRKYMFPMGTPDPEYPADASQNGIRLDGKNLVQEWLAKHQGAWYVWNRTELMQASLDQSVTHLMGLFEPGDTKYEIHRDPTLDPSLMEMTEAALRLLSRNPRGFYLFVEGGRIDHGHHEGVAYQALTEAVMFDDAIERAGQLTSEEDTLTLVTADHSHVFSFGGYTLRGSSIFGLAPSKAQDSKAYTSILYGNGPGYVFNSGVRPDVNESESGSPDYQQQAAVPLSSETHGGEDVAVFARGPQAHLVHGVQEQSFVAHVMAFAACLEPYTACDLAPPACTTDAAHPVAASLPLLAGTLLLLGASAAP
# [5] = molecular target: T3, Intestinal-type alkaline phosphatase; assay: human IAP activators, dose response, biochemical, luminescent, uHTS hits, set 2 (AID 488817); assay type: functional;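 further: potency of activators that raise enzyme activity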
# [6] = molecular target: T2, Intestinal-type alkaline phosphatase; assay: PubChem AID 488874; assay type: functional
# [7] = molecular target: T4, Short transient receptor potential channel 4 (Mus musculus, UniProt Q9QUQ5); assay: TRPC4 positive allosteric modulators, dose response, cell-based, HEK293 TRPC4/mu-opioid, Fluo-4 calcium, EC20 DAMGO (AID 434941); assay type: functional
# T4 sequence (Q9QUQ5 whole entry): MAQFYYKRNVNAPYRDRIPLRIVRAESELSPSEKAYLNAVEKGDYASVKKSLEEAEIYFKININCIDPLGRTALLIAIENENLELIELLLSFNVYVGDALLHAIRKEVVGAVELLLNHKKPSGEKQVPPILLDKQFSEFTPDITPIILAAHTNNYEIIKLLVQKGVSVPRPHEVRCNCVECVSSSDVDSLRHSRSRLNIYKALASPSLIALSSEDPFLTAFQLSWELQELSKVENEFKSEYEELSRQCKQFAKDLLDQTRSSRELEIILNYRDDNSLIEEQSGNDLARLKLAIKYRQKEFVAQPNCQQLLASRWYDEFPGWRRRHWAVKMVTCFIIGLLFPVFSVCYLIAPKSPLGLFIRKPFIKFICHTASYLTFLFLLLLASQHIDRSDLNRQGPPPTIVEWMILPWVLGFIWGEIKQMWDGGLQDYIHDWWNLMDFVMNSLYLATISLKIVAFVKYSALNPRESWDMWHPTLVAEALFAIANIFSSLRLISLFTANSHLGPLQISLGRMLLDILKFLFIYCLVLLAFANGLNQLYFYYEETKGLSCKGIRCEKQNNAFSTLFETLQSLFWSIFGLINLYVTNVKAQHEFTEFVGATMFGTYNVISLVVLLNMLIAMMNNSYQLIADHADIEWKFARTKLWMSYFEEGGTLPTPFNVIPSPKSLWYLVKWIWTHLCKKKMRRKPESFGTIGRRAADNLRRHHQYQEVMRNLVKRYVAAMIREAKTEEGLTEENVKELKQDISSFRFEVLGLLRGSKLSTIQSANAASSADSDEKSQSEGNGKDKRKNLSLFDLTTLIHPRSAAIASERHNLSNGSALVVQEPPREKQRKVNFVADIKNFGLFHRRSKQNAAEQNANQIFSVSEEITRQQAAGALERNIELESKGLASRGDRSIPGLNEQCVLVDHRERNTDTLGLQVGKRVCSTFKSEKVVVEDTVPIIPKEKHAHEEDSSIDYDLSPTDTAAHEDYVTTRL
# Mucolipin-3 = molecular target: T5, Mucolipin-3 (Homo sapiens, UniProt Q8TDD5); assay: Fluorescence counterscreen assay for […] agonists: dose response cell-based high-throughput screening assay to identify agonists of the transient receptor potential channel ML3 (TRPML3). [Related pubchem assays: 1424, 1448 ]; assay type: functional
# T5 sequence (Q8TDD5 whole entry): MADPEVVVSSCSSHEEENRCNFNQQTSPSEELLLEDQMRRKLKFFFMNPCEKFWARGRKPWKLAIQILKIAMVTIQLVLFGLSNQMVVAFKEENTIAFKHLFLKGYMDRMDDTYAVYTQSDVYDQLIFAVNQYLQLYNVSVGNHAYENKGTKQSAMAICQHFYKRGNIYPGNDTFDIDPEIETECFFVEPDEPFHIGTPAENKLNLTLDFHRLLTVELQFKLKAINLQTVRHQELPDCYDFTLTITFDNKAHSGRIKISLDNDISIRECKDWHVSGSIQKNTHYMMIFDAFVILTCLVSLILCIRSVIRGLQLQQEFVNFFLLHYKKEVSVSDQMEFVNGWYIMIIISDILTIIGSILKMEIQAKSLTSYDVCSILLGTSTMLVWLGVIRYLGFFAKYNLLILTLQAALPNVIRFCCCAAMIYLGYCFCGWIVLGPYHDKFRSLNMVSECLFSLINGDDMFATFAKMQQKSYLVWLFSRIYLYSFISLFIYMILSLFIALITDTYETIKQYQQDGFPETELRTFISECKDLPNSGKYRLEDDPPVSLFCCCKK
# Ion channel NompC = Ion channel NompC (Danio rerio, UniProt Q7T1G6); assay: Dose response cell-based high-throughput screening assay for agonists of the transient receptor potential channel N1 (TRPN1). [Related pubchem assays (depositor defined):AID1424, AID1448]; assay type: functional
# Sequence of Ion channel NompC (Q7T1G6 whole entry, the tested form may be a part): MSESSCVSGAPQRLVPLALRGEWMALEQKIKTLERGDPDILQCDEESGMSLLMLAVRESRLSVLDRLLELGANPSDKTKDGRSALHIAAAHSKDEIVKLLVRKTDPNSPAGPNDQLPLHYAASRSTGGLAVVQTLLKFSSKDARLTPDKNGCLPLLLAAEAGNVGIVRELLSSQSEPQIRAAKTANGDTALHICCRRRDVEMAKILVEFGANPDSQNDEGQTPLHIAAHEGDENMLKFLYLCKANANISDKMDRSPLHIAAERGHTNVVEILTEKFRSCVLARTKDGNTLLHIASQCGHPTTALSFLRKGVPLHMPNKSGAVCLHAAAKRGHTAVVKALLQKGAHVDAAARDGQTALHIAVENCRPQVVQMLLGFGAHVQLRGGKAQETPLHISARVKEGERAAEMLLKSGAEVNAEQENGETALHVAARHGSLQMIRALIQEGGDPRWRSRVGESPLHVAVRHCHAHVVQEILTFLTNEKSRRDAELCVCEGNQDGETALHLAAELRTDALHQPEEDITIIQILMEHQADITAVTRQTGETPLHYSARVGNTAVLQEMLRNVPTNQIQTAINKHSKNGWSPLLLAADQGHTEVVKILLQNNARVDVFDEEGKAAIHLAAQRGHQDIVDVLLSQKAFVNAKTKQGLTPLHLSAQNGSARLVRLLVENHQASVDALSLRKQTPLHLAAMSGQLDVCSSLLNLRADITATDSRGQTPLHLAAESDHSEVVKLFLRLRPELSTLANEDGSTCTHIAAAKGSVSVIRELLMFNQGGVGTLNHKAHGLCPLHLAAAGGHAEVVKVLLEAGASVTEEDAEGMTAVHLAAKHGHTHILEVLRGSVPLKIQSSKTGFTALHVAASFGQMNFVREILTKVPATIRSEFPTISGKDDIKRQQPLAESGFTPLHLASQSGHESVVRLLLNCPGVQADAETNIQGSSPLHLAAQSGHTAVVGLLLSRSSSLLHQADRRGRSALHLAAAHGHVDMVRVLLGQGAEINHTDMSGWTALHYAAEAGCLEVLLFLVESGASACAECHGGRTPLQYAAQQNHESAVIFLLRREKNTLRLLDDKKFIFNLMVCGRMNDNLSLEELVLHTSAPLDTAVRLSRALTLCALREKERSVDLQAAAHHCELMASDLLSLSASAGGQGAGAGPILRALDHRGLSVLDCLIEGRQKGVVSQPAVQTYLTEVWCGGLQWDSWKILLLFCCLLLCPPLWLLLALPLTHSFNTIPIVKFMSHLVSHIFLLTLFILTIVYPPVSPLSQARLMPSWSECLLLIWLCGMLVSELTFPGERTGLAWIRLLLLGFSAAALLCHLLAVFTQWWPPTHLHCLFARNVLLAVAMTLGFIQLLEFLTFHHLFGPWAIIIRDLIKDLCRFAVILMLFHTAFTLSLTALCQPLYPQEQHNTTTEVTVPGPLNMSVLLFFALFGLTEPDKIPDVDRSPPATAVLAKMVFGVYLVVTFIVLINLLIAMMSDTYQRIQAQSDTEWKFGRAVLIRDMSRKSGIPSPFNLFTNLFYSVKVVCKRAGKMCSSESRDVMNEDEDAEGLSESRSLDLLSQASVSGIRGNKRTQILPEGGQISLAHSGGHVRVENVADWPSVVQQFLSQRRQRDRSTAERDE
# [8] = molecular target: Type-1 angiotensin II receptor (Homo sapiens, UniProt P30556); assay: AT1 receptor agonists, dose response, selectivity assay for APJ receptor agonist project, cell-based, uHTS hits (AID 488865); assay type: functional;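 further: beta-arrestin recruitment to AT1 measured by enzyme fragment complementation luminescence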
# Cytochrome P450 3A4 = Cytochrome P450 3A4 (Homo sapiens, UniProt P08684);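 further: CYP3A4 tested as one member of a cytochrome P450 panel screen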
# Troponin, cardiac muscle = Troponin, cardiac muscle (Homo sapiens, UniProt P19429+P45379+P63316); assay: Fluorescence-based biochemical high throughput dose response assay for activators of the calcium sensitivity of cardiac Regulated Thin Filaments (RTF). [Related pubchem assays (depositor defined):AID493008, AID493018, AID504382, AID504383]; assay type: protein-complex assay
# [9] = HepG2 cell cytotoxicity, dose response, cytotoxicity control for Shn3 inhibitor project, CellTiter-Glo, cherry-picked (AID 624134); assay type: functional, cell-based
# [10] = LGR2 antagonists, dose response, cell-based, HEK293, CRE-luciferase reporter, cherry pick, set 2 (AID 743343); assay type: functional;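 further: transfected cells were stimulated with diluted bursicon conditioned medium after compound addition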
# [11] = Shn3 3'UTR reporter inhibitors, dose response, cell-based, Clone20 osteoblasts, firefly luciferase, cherry-picked (AID 624132); assay type: functional;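 further: firefly luciferase luminescence from reporter carrying the Shn3 3'UTR in osteoblasts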
# [12] = HepG2 cell cytotoxicity, dose response, cytotoxicity control for non-replicating M. tuberculosis project (AID 489018); assay type: functional; settings: Mycobacterium tuberculosis
# [13] = cytotoxicity in HEK-293T cells, dose response, cytotoxicity control for TCR NF-kB inhibitor project, luminescence, T-cell screen hits (AID 489026); assay type: functional, cell-based;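 further: cells exposed to compound about 14 hours before the viability readout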
# [14] = MC4R antagonists, dose response, counter-screen for LGR2 antagonist project, cell-based, plate reader, cherry pick (AID 743444); assay type: functional;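 further: transfected HEK 293 cells stimulated with alpha-MSH peptide; potency of inhibitors of the alpha-MSH evoked signal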
# [15] = Vero E6 cell cytotoxicity, dose response, cytotoxicity control for non-replicating M. tuberculosis project, secondary assay (AID 492998); assay type: functional, VeroE6; settings: Vero C1008
# [16] = control 3'UTR Renilla luciferase suppression, dose response, counter-screen for Shn3 inhibitor project, cell-based, Clone20-Shn3RL, cherry-picked (AID 624133); assay type: functional
# HeLa = assay: Cytotoxicity counterscreen assay for transcriptional activators of heat shock protein 70 (Hsp70). [Related pubchem assays: 1203, 1252 ]; assay type: functional; settings: Homo sapiens;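 further: cells exposed to compound for 16 hours before readout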
# cells = assay type: functional
# [17] = molecular target: T6, Heat shock factor protein 1 (Mus musculus, UniProt P38532); assay: inhibition of MG132-induced HSE-luciferase signal, confirmation, cell-based, NIH3T3, luminescence, dose retest (AID 2382); assay type: functional;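 further: NIH3T3 fibroblasts with HSF1-driven luciferase reporter stressed by proteasome inhibitor MG132; luminescence from HSF1-driven luciferase expression after 8 hours of MG132 stress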
# T6 sequence (P38532 whole entry): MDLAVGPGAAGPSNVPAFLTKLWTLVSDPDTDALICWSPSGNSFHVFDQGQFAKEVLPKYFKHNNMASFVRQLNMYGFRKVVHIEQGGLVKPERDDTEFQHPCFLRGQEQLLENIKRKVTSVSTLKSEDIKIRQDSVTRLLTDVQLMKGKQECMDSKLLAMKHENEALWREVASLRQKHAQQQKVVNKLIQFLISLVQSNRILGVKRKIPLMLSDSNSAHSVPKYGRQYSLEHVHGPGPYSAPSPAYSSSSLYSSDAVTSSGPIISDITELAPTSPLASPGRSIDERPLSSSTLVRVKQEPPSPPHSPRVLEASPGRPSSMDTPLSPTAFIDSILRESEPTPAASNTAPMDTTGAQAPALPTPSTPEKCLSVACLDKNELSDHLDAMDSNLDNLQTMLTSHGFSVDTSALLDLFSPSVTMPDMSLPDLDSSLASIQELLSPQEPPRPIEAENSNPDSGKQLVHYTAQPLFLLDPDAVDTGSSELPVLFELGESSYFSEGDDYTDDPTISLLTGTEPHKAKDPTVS
# [18] = A549 cell cytotoxicity, dose response, cytotoxicity control, plate reader, cherry-pick, antagonist series (AID 743412); assay type: functional, cell-based
# [19] = THP-1 cell cytotoxicity, dose response, cytotoxicity control for non-replicating M. tuberculosis project (AID 489025); assay type: functional
# [20] = HepG2 cell cytotoxicity, dose response, cytotoxicity control, plate reader, cherry-pick, antagonist series (AID 743416); assay type: functional, cell-based
# [21] = molecular target: G2/mitotic-specific cyclin-B1 (Homo sapiens, UniProt P14635); assay: Counterscreen assay for inhibitors of Wee1 degradation: dose response cell-based assay to identify inhibitors of cyclin B degradation. [Related pubchem assays: 1410, 1321 ]; assay type: functional
# Wee1-like protein kinase = Wee1-like protein kinase (Homo sapiens, UniProt P30291); assay: Dose Response Cell-based Assay for Inhibitors of Wee1 Degradation. [Related pubchem assays: 1410, 1321 ]; assay type: functional
# Sequence of Wee1-like protein kinase (P30291 whole entry): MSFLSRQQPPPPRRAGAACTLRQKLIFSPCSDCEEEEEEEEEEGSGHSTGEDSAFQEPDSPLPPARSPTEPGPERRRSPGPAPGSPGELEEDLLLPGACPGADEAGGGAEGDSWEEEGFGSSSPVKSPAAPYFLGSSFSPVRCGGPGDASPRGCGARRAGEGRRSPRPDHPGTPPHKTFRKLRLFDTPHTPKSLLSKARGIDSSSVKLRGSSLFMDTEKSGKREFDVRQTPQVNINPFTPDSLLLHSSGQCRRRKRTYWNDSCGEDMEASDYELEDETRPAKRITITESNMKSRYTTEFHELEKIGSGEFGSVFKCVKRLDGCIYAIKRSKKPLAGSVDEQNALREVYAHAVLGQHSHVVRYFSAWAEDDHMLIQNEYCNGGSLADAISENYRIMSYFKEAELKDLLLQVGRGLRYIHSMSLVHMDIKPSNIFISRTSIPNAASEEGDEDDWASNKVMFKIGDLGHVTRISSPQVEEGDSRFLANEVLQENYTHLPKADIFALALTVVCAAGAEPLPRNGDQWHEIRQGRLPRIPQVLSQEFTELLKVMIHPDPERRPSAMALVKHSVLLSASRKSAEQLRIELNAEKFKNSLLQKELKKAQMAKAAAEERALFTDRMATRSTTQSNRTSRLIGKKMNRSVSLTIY
# [22] = HEK293 cell cytotoxicity, dose response, cytotoxicity control, plate reader, cherry-picked samples (AID 743446); assay type: functional, cell-based
# Perilipin-1/ABHD5 = Perilipin-1/ABHD5 (Homo sapiens, UniProt O60240+Q8WTS1); assay: Luminescence-based biochemical high throughput dose response assay for inhibitors of the interaction of the lipase co-activator protein, abhydrolase domain containing 5 (ABHD5) with perilipin-1 (PLIN1) (2K validation set). [Related pubchem assays (depositor defined):AID493027, AID493057]
# [23] = molecular target: 1-acylglycerol-3-phosphate O-acyltransferase ABHD5/Perilipin-5 (Homo sapiens, UniProt Q00G26+Q8WTS1); assay: Luminescence-based biochemical high throughput dose response assay for inhibitors of the interaction of the lipase co-activator protein, abhydrolase domain containing 5 (ABHD5) with perilipin-5 (MLDP; PLIN5) (2K validation set). [Related pubchem assays (depositor defined):AID493035, AID493241]
# Sequence of 1-acylglycerol-3-phosphate O-acyltransferase ABHD5/Perilipin-5 (Q00G26 whole entry, the tested form may be a part): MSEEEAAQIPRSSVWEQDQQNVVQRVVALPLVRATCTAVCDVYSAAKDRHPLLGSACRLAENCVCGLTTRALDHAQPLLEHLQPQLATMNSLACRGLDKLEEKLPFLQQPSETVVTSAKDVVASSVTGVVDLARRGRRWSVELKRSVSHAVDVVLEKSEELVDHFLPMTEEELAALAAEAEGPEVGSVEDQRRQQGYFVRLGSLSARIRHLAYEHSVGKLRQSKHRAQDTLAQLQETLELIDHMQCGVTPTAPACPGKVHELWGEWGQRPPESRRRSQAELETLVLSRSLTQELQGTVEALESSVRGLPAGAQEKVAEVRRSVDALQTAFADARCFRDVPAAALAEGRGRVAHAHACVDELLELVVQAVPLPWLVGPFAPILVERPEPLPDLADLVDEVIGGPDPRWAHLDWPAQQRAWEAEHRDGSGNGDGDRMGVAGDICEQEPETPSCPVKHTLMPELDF
# Sequence of 1-acylglycerol-3-phosphate O-acyltransferase ABHD5/Perilipin-5 (Q8WTS1 whole entry, the tested form may be a part): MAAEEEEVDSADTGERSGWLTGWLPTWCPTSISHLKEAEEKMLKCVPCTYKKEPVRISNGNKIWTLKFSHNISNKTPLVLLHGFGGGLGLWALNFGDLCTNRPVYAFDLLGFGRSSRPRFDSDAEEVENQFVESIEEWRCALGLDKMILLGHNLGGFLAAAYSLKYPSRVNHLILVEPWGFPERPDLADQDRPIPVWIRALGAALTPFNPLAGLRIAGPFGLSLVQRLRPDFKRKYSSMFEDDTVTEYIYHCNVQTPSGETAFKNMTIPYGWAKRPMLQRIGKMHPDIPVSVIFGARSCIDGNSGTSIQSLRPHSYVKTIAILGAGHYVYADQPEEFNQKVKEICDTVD
# [24] = molecular target: Sphingosine 1-phosphate receptor 4 (Homo sapiens, UniProt O95977); assay: S1P4 receptor agonists, human, late-stage follow-up, cell-based, fluorescence, synthesized compounds (AID 463107); assay type: functional
# Sequence of Sphingosine 1-phosphate receptor 4 (O95977 whole entry): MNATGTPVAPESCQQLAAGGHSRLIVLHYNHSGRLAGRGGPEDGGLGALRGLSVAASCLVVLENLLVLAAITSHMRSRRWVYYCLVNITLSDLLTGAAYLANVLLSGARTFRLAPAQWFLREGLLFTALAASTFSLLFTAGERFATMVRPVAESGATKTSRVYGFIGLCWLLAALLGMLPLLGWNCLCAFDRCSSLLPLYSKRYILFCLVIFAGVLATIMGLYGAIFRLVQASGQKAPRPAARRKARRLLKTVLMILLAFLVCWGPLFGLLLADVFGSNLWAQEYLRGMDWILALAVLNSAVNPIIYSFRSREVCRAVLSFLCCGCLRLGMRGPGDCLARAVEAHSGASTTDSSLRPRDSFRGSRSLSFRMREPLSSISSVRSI
# Sequence of G-protein coupled receptor 55 (Q9Y2T6 whole entry): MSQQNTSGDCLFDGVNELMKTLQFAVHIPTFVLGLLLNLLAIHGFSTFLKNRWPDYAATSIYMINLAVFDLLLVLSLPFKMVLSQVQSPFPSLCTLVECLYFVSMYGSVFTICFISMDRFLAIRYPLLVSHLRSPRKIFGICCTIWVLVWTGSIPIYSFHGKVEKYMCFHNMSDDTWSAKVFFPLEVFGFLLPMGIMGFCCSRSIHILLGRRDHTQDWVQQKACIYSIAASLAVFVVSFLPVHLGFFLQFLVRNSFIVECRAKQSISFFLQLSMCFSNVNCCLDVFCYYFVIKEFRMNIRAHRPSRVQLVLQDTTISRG
smiles,measurement,setting,value
COc1cc(S(=O)(=O)N2CCOCC2)ccc1NC(=O)c1cc2c(s1)CCC2,EC50,[1],2.83 µM (active)
CC(NS(=O)(=O)c1ccc(Br)cc1)C(=O)Nc1nc2ccccc2[nH]1 (configuration not stated),EC50,[2],14.3 µM (active)
same,EC50,[3],> 100 µM (inactive)
same,EC50,[4],11 µM (active)
same,EC50,[5],13.3 µM (active)
same,IC50,[6],> 100 µM (inactive)
Cc1cccc(/C=N/NC(=O)c2cccc(Cl)c2)n1,EC50,[7],5.31 µM (active)
COC(=O)c1cccc(NC(=O)Nc2ccc(Cl)cc2)c1,EC50,Mucolipin-3,> 29.9 µM (not active)
same,EC50,Ion channel NompC,> 29.9 µM (inactive)
CCOc1cc2[nH]c(=S)n(CCC(=O)N3CCc4ccccc4C3)c(=O)c2cc1OCC,EC50,[8],> 100 µM (inactive)
same,AC50,Cytochrome P450 3A4,3.55 µM (inconclusive)
COC(=O)C(=N/Nc1ccccc1C(=O)OC)/C(C)=N/O,EC50,"Troponin, cardiac muscle",> 71.5 µM (inactive)
O=C1C=CC(O)(c2cc(=O)c3c(O)cc(O)cc3o2)C=C1 [PROTOAPIGENONE],AC50,[9],32.3 µM (active)
same,AC50,[10],21.4 µM (active)
same,AC50,[11],5.12 µM (active)
same,CC50,[12],5.74 µM (active)
same,IC50,[13],> 80 µM (inactive)
same,AC50,[14],27.1 µM (active)
same,CC50,[15],3.28 µM (active)
same,AC50,[16],4.47 µM (active)
same,CC50,HeLa,> 1.22 µM (not active)
same,IC50,cells,3.02 µM (active)
same,EC50,[17],4.28 µM (active)
same,AC50,[18],6.31 µM (active)
same,CC50,[19],2.6 µM (active)
same,AC50,[20],7.09 µM (active)
same,EC50,[21],> 1.84 µM (active)
same,EC50,Wee1-like protein kinase,> 1.84 µM (active)
same,AC50,[22],5.13 µM (active)
CCOC(=O)C(=Cc1ccccc1OC)C(=O)OCC,IC50,Perilipin-1/ABHD5,11.5 µM (inactive)
same,IC50,[23],15.3 µM (inactive)
Cc1ccc(C#N)c(OCCOc2ccc(Cl)cc2Cl)n1,EC50,[24],> 50 µM (inactive)
